Here are results for seven compounds from ChEMBL document CHEMBL1130687, “Synthesis and morphological reversion activity on srctsNRK cells of pyrimidinylpropanamide antibiotics, sparsomycin, sparoxomycin A1, A2, and their analogues” (1998).

In this test the test system is NRK. Kind of test: Compound was tested for its morphological reversion activity on srctsNRK cells. The test is classed as functional. As to conditions: Rattus norvegicus, read-out: MEC.
Consider `Cc1nc(O)nc(O)c1/C=C/C(=O)N[C@H](CO)C[S+]([O-])C[S+](C)[O-]` (some centres not stated), for which the minimal effective concentration is 530 µM. The result for `CCSC[S+]([O-])C[C@H](CO)NC(=O)/C=C/c1c(C)nc(O)nc1O` (some centres not stated) reads 20 µM.

With `CCCCSC[S+]([O-])C[C@H](CO)NC(=O)/C=C/c1c(C)nc(O)nc1O` (some centres not stated), the minimal effective concentration came to 60 µM. The result for `COCOC[C@@H](C[S+]([O-])CSC)NC(=O)/C=C/c1c(C)nc(O)nc1O` (some centres not stated) reads 60 µM. The result for `CCC(C)SC[S+]([O-])C[C@H](CO)NC(=O)/C=C/c1c(C)nc(O)nc1O` (some centres not stated) reads 180 µM; that for `CSC[S+]([O-])C[C@H](CO)NC(=O)/C=C/c1c(C)[nH]c(=O)[nH]c1=O` (some centres not stated), 6.5 µM. With `Cc1nc(O)nc(O)c1/C=C/C(=O)N[C@@H](CO)C[S+]([O-])C[S+](C)[O-]` (some centres not stated), the minimal effective concentration was 530 µM.
